Here are results for 15 molecules from ChEMBL document CHEMBL1144015, “Antiproliferative effects on human tumor cells and rat aortic smooth muscular cells of 2,3-heteroarylmaleimides and heterofused imides” (Bioorg Med Chem, 2008).

The structures appear in SMILES notation. Activity calls are given as the source filed them. The calls are words filed in the database; no cut-off is given here.

Series [1] can be described thus: Effect on cell proliferation of Sprague-Dawley rat smooth muscle cells after 72 hrs.
The next series relates to NCI-H460. Description: Antiproliferative activity against human NCI-H460 cells after 72 hrs. The format is functional, cell-based. The following applies: NCI-H460, 72 h.
The nature of series [2]: Partition coefficient, log P of the compound. The series is classed as physicochemical. The following applies: octanol/water.
The nature of series [3]: Binding affinity to supercoiled pRYG DNA by DNA intercalating assay.

Usually IC50 stands for the concentration needed to halve the response being measured. A low value points to higher potency. A word on the logP: it is a log measure of how a compound divides between an organic and an aqueous phase. Consider `CCN(CC)CCN1C(=O)C(c2cccs2)=C(c2c[nH]c3ccccc23)C1=O`, for which the values for the 50% inhibitory concentration (IC50) (in series [1]; in the series with NCI-H460) were 1 µM and 1.9 µM, respectively. In addition, the lipophilicity (logP) in series [2] was 3.8.
For the molecule `CCN(CC)CCN1C(=O)c2c(c3sccc3c3ccccc23)C1=O`, the IC50 was 13.9 µM in series [1] and 7.1 µM in the series on NCI-H460. In series [2], the logP was determined as 3.9.
On to `CCN(CC)CCN1C(=O)C(c2c[nH]c3ccccc23)=C(c2cccn2C)C1=O`, for which the IC50 came out at 3.6 µM in series [1] and 8.5 µM in the series with NCI-H460. For the same molecule, in series [2], the logP was 2.9.
In the case of `CCN(CC)CCN1C(=O)c2c(c3ccccc3c3ccccc23)C1=O`, the IC50 in series [1] is 0.68 µM; in the series with NCI-H460, 0.9 µM. Moreover, in series [2], the logP turned out to be 4.1.
Consider `CCN(CC)CCN1C(=O)C(c2cccs2)=C(c2cccs2)C1=O`, for which the IC50 in series [1] stood at 3.9 µM; in the series with NCI-H460, 8.9 µM. The molecule also had a logP in series [2] of 2.9. Also, the outcome in series [3] was inactive.
Regarding `CN(C)CCN1C(=O)c2cccc3cc(N)cc(c23)C1=O` [AMONAFIDE], the IC50 was 0.48 µM in series [1] and 7.8 µM in the series with NCI-H460. This molecule displayed a logP in series [2] of 1.6.
For `CCN(CC)CCN1C(=O)c2c(c3sccc3c3ccsc23)C1=O`, the IC50 in series [1] was determined as 0.53 µM; in the series on NCI-H460, 4.8 µM. Also, in series [2], the logP was 3.8. The outcome in series [3] was inactive.
Turning to `CCN(CC)CCN1C(=O)C(c2cccs2)=C(c2cccn2C)C1=O`, the IC50 in series [1] was 12.1 µM; in the series on NCI-H460, 9 µM. This molecule also yielded a logP in series [2] of 1.7. Besides, the outcome in series [3] was inactive.
In turn, `CCN(CC)CCN1C(=O)C(c2ccco2)=C(c2cccn2C)C1=O` gave an IC50 in the series on NCI-H460 of more than 30 µM. In series [2], this molecule came in with a lipophilicity (logP) of 0.9.
For `CCN(CC)CCN1C(=O)C(c2ccco2)=C(c2cccs2)C1=O`, the IC50 is 2.1 µM in series [1] and 8.7 µM with NCI-H460. In series [2], this molecule displayed a logP of 2.1.
With `CCN(CC)CCN1C(=O)c2c(c3c(ccn3C)c3ccoc23)C1=O`, the IC50 in series [1] was 5.3 µM; in the series on NCI-H460, 8.6 µM. This molecule also returned a logP in series [2] of 1.7.
On to `CCN(CC)CCN1C(=O)C(c2cc3ccccc3[nH]2)=C(c2cccs2)C1=O`, for which the figures for the IC50 (in series [1]; in the series on NCI-H460) were 5.3 µM and 8.4 µM, respectively. The molecule also showed a logP in series [2] of 3.8.
With `CCN(CC)CCN1C(=O)c2c(c3sccc3c3ccoc23)C1=O`, the IC50 (in series [1]; in the series on NCI-H460) was more than 30 µM in each case. For the same molecule, the logP in series [2] turned out to be 3.
For `O=C1c2cccc3cccc(c23)C(=O)N1CCNCCCNCCN1C(=O)c2cccc3cccc(c23)C1=O`, the outcome in series [3] was Active.
On to `CCN(CC)CCN1C(=O)c2c(c3c(ccn3C)c3ccsc23)C1=O`, for which the IC50 in series [1] was 0.08 µM; in the series with NCI-H460 it was 0.84 µM. Further, the logP in series [2] was found to be 2.5. For the same molecule, in series [3], the outcome was inactive.
